{"source": "patent US12569543B2", "about": "“Semaglutide in cardiovascular conditions” (Novo Nordisk A/S, priority 2016, dated 2026)", "system": "human subjects with type 2 diabetes", "assay": "Long-term randomised, double-blind, placebo-controlled cardiovascular outcomes trial with semaglutide", "key": {"[1]": {"conditions": "Table 4, coronary and peripheral, semaglutide arms"}, "[2]": {"conditions": "Table 4, individual component of MACE, semaglutide arms"}, "[3]": {"conditions": "Table 4, individual component of MACE, semaglutide vs placebo, Cox model"}, "[4]": {"conditions": "Table 4, MACE incl. revascularisation, hospitalisation for UAP and heart failure, semaglutide arms"}, "[5]": {"conditions": "Table 4, semaglutide vs placebo, Cox model"}, "[6]": {"conditions": "Table 5, under first MACE (CV death, non-fatal MI, non-fatal stroke), semaglutide arms"}, "[7]": {"conditions": "Table 5, MACE = cardiovascular death, non-fatal MI, non-fatal stroke, all subjects, semaglutide arms"}, "[8]": {"conditions": "Table 5 subgroup BMI >30 kg/m^2, semaglutide arms"}, "[9]": {"conditions": "Table 5 subgroup BMI ≤30 kg/m^2, semaglutide arms"}, "[10]": {"conditions": "Table 5 subgroup Ethnic origin: Asian, semaglutide arms"}, "[11]": {"conditions": "Table 5 subgroup Ethnic origin: Black or African-American, semaglutide arms"}, "[12]": {"conditions": "Table 5 subgroup Ethnic origin: Other, semaglutide arms"}, "[13]": {"conditions": "Table 5 subgroup Ethnic origin: White, semaglutide arms"}, "[14]": {"conditions": "Table 5 subgroup Heart failure NYHA class I or no heart failure, semaglutide arms"}, "[15]": {"conditions": "Table 5 subgroup Heart failure NYHA class II or III, semaglutide arms"}, "[16]": {"conditions": "Table 5 subgroup Sex: Female, semaglutide arms"}, "[17]": {"conditions": "Table 5 subgroup Sex: Male, semaglutide arms"}}, "experimental": "A long-term randomised, double-blind, placebo-controlled, four-armed parallel-group, multicentre, multi-national, safety and efficacy trial was carried out to evaluate cardiovascular and other long-term outcomes with semaglutide in 3,297 human subjects with type 2 diabetes.\nThe subjects were randomised to receive once weekly treatment doses of 0.5 mg semaglutide, 1.0 mg semaglutide, or volume-matched placebo, as an add-on to their standard-of-care treatment, wherein administration started with an initial dose escalation step at 0.25 mg semaglutide once weekly for 4 weeks, and for the 1.0 mg semaglutide group an additional 4 week period at 0.5 mg semaglutide once weekly, or their volume-matched placebo, as shown in Table 1. Additional glucose-lowering medications were allowed to be added to the anti-diabetic regimen to maintain target glycaemic control at the discretion of investigator.\nSemaglutide was administered in the form of an aqueous solution comprising semaglutide or placebo, both using a 3 ml disposable pen-injector. This pen-injector was identical for the semaglutide and placebo administrations. This aqueous solution contained 1.34 mg/ml semaglutide, 1.42 mg/ml disodium phosphate dihydrate, 14.0 mg/ml propylene glycol, 5.5 mg/ml phenol, at pH 7.40.\nInjections were administered in the thigh, abdomen or upper arm, at any time of day irrespective of meals. The injections were administered on the same day of the week during the trial.\nIn this trial, “clinical evidence of cardiovascular disease” was present when the subject fulfilled at least one criterion selected from the group consisting of a) to h): • a) prior myocardial infarction, • b) prior stroke or transient ischaemic attack, • c) prior coronary, carotid or peripheral arterial revascularisation, • d) >50% stenosis on angiography or imaging of coronary, carotid or lower extremity arteries, • e) history of symptomatic coronary heart disease (documented by e.g. positive exercise stress test or any cardiac imaging or unstable angina with ECG changes), • f) asymptomatic cardiac ischemia (e.g. documented by positive nuclear imaging test or exercise test or stress echo or any cardiac imaging), • g) heart failure New York Heart Association (NYHA) class and • h) chronic renal impairment (documented (prior to screening) by estimated glomerular filtration rate (eGFR)<60 mL/min/1.73 m^2 per MDRD).\nIn this trial, “subclinical evidence of cardiovascular disease” was present when the subject fulfilled at least one criterion selected from the group consisting of i) to l): • i) persistent microalbuminuria (30-299 mg/g) or proteinuria, • j) hypertension and left ventricular hypertrophy by ECG or imaging, • k) left ventricular systolic or diastolic dysfunction by imaging, and • l) ankle/brachial index<0.9.\nThe results of this trial may be presented herein as a number or fraction of subjects experiencing an event. […] The term “hazard ratio” (also referred to as “HR”) as used herein means the instantaneous risk ratio of experiencing an event when administered semaglutide compared to placebo which are the two treatments in this trial. An upper limit of the 95% confidence interval (CI) for the HR of less than 1.00 means that the estimated treatment ratio between semaglutide and placebo with respect to the event of interest is statistically significant in favour of semaglutide on a 5% significance level.", "data": [{"substance": "N^6.26-{18-[N-(17-carboxy-heptadecanoyl)-L-γ-glutamyl]-10-oxo-3,6,12,15-tetraoxa-9,18-diazaoctadecanoyl}-[8-(2-amino-2-propanoic acid),34-L-arginine]human glucagon-like peptide 1(7-37) [Semaglutide]", "values": [{"measurement": "Time to first non-fatal myocardial infarction (Kaplan-Meier plot)", "setting": "FIG. 1, after a certain period of chronic treatment, vs placebo", "value": "particularly good effect"}, {"measurement": "Time to first revascularisation (Kaplan-Meier plot)", "setting": "FIG. 2, after a certain period of chronic treatment, vs placebo", "value": "particularly good effect"}, {"measurement": "Revascularisation, N subjects with at least one event", "setting": "[1]", "value": 83}, {"measurement": "Revascularisation, percentage of subjects with at least one event", "setting": "[1]", "value": 5.0, "unit": "%"}, {"measurement": "Revascularisation, hazard ratio", "setting": "Table 4, coronary and peripheral, semaglutide vs placebo, Cox model", "value": 0.65}, {"measurement": "Cardiovascular death, N subjects with event", "setting": "[2]", "value": 44}, {"measurement": "Cardiovascular death, percentage of subjects with event", "setting": "[2]", "value": 2.7, "unit": "%"}, {"measurement": "Myocardial infarction, non-fatal, N subjects with at least one event", "setting": "[2]", "value": 47}, {"measurement": "Myocardial infarction, non-fatal, percentage of subjects with at least one event", "setting": "[2]", "value": 2.9, "unit": "%"}, {"measurement": "Stroke, non-fatal, N subjects with at least one event", "setting": "[2]", "value": 27}, {"measurement": "Stroke, non-fatal, percentage of subjects with at least one event", "setting": "[2]", "value": 1.6, "unit": "%"}, {"measurement": "Cardiovascular death, hazard ratio", "setting": "[3]", "value": 0.98}, {"measurement": "Myocardial infarction, non-fatal, hazard ratio", "setting": "[3]", "value": 0.74}, {"measurement": "Stroke, non-fatal, hazard ratio", "setting": "[3]", "value": 0.61}, {"measurement": "Time to first MACE, hazard ratio", "setting": "Table 4, MACE = CV death, non-fatal MI, non-fatal stroke, revascularisation, hospitalisation for UAP or heart failure, semaglutide vs placebo, Cox model", "value": 0.74}, {"measurement": "First MACE, N subjects experiencing at least one event", "setting": "[4]", "value": 199}, {"measurement": "First MACE, percentage of subjects experiencing at least one event", "setting": "[4]", "value": 12.1, "unit": "%"}, {"measurement": "Coronary revascularisation, N subjects with at least one event", "setting": "Table 4, semaglutide arms", "value": 70}, {"measurement": "Coronary revascularisation, percentage of subjects with at least one event", "setting": "Table 4, semaglutide arms", "value": 4.2, "unit": "%"}, {"measurement": "Hospitalisation for UAP, N subjects with at least one event", "setting": "Table 4, semaglutide arms", "value": 22}, {"measurement": "Hospitalisation for UAP, percentage of subjects with at least one event", "setting": "Table 4, semaglutide arms", "value": 1.3, "unit": "%"}, {"measurement": "Hospitalisation for heart failure, N subjects with at least one event", "setting": "Table 4, semaglutide arms", "value": 59}, {"measurement": "Hospitalisation for heart failure, percentage of subjects with at least one event", "setting": "Table 4, semaglutide arms", "value": 3.6, "unit": "%"}, {"measurement": "Peripheral revascularisation, N subjects with at least one event", "setting": "Table 4, semaglutide arms", "value": 16}, {"measurement": "Peripheral revascularisation, percentage of subjects with at least one event", "setting": "Table 4, semaglutide arms", "value": 1.0, "unit": "%"}, {"measurement": "Coronary revascularisation, hazard ratio", "setting": "[5]", "value": 0.68}, {"measurement": "Hospitalisation for UAP, hazard ratio", "setting": "[5]", "value": 0.82}, {"measurement": "Hospitalisation for heart failure, hazard ratio", "setting": "[5]", "value": 1.11}, {"measurement": "Peripheral revascularisation, hazard ratio", "setting": "[5]", "value": 0.63}, {"measurement": "Cardiovascular death, N subjects", "setting": "[6]", "value": 37}, {"measurement": "Cardiovascular death, percentage of subjects", "setting": "[6]", "value": 2.2, "unit": "%"}, {"measurement": "Myocardial infarction, non-fatal, N subjects", "setting": "[6]", "value": 46}, {"measurement": "Myocardial infarction, non-fatal, percentage of subjects", "setting": "[6]", "value": 2.8, "unit": "%"}, {"measurement": "Stroke, non-fatal, N subjects", "setting": "[6]", "value": 25}, {"measurement": "Stroke, non-fatal, percentage of subjects", "setting": "[6]", "value": 1.5, "unit": "%"}, {"measurement": "First MACE, N subjects experiencing at least one event", "setting": "[7]", "value": 108}, {"measurement": "First MACE, percentage of subjects experiencing at least one event", "setting": "[7]", "value": 6.6, "unit": "%"}, {"measurement": "Time to first MACE, hazard ratio", "setting": "Table 5, MACE = cardiovascular death, non-fatal MI, non-fatal stroke, all subjects, semaglutide vs placebo, Cox model", "value": 0.74}, {"measurement": "Time to first MACE, hazard ratio", "setting": "Table 5 subgroup BMI >30 kg/m^2, MACE = CV death, non-fatal MI, non-fatal stroke, vs placebo", "value": 0.84}, {"measurement": "First MACE, N subjects with at least one event", "setting": "[8]", "value": 69}, {"measurement": "First MACE, percentage of subjects with at least one event", "setting": "[8]", "value": 6.6, "unit": "%"}, {"measurement": "Time to first MACE, hazard ratio", "setting": "Table 5 subgroup BMI ≤30 kg/m^2, MACE = CV death, non-fatal MI, non-fatal stroke, vs placebo", "value": 0.58}, {"measurement": "First MACE, N subjects with at least one event", "setting": "[9]", "value": 39}, {"measurement": "First MACE, percentage of subjects with at least one event", "setting": "[9]", "value": 6.6, "unit": "%"}, {"measurement": "Time to first MACE, hazard ratio", "setting": "Table 5 subgroup Ethnic origin: Asian, MACE = CV death, non-fatal MI, non-fatal stroke, vs placebo", "value": 0.58}, {"measurement": "First MACE, N subjects with at least one event", "setting": "[10]", "value": 2}, {"measurement": "First MACE, percentage of subjects with at least one event", "setting": "[10]", "value": 5.7, "unit": "%"}, {"measurement": "Time to first MACE, hazard ratio", "setting": "Table 5 subgroup Ethnic origin: Black or African-American, MACE = CV death, non-fatal MI, non-fatal stroke, vs placebo", "value": 0.72}, {"measurement": "First MACE, N subjects with at least one event", "setting": "[11]", "value": 5}, {"measurement": "First MACE, percentage of subjects with at least one event", "setting": "[11]", "value": 4.6, "unit": "%"}, {"measurement": "Time to first MACE, hazard ratio", "setting": "Table 5 subgroup Ethnic origin: Other, MACE = CV death, non-fatal MI, non-fatal stroke, vs placebo", "value": 0.46}, {"measurement": "First MACE, N subjects with at least one event", "setting": "[12]", "value": 93}, {"measurement": "First MACE, percentage of subjects with at least one event", "setting": "[12]", "value": 6.7, "unit": "%"}, {"measurement": "Time to first MACE, hazard ratio", "setting": "Table 5 subgroup Ethnic origin: White, MACE = CV death, non-fatal MI, non-fatal stroke, vs placebo", "value": 0.76}, {"measurement": "First MACE, N subjects with at least one event", "setting": "[13]", "value": 8}, {"measurement": "First MACE, percentage of subjects with at least one event", "setting": "[13]", "value": 6.6, "unit": "%"}, {"measurement": "Time to first MACE, hazard ratio", "setting": "Table 5 subgroup Heart failure NYHA class I or no heart failure, MACE = CV death, non-fatal MI, non-fatal stroke, vs placebo", "value": 0.64}, {"measurement": "First MACE, N subjects with at least one event", "setting": "[14]", "value": 73}, {"measurement": "First MACE, percentage of subjects with at least one event", "setting": "[14]", "value": 5.4, "unit": "%"}, {"measurement": "Time to first MACE, hazard ratio", "setting": "Table 5 subgroup Heart failure NYHA class II or III, MACE = CV death, non-fatal MI, non-fatal stroke, vs placebo", "value": 1.03}, {"measurement": "First MACE, N subjects with at least one event", "setting": "[15]", "value": 35}, {"measurement": "First MACE, percentage of subjects with at least one event", "setting": "[15]", "value": 12.3, "unit": "%"}, {"measurement": "Time to first MACE, hazard ratio", "setting": "Table 5 subgroup Sex: Female, MACE = CV death, non-fatal MI, non-fatal stroke, vs placebo", "value": 0.84}, {"measurement": "First MACE, N subjects with at least one event", "setting": "[16]", "value": 35}, {"measurement": "First MACE, percentage of subjects with at least one event", "setting": "[16]", "value": 5.5, "unit": "%"}, {"measurement": "Time to first MACE, hazard ratio", "setting": "Table 5 subgroup Sex: Male, MACE = CV death, non-fatal MI, non-fatal stroke, vs placebo", "value": 0.68}, {"measurement": "First MACE, N subjects with at least one event", "setting": "[17]", "value": 73}, {"measurement": "First MACE, percentage of subjects with at least one event", "setting": "[17]", "value": 7.2, "unit": "%"}, {"measurement": "First MACE, N subjects with at least one event", "setting": "Table 6, 0.5 mg semaglutide once weekly arm", "value": 59}, {"measurement": "Time to first MACE, hazard ratio", "setting": "Table 6, 0.5 mg semaglutide once weekly arm vs its placebo, MACE = CV death, non-fatal MI, non-fatal stroke", "value": 0.77}, {"measurement": "First MACE, N subjects with at least one event", "setting": "Table 6, 1.0 mg semaglutide once weekly arm", "value": 49}, {"measurement": "Time to first MACE, hazard ratio", "setting": "Table 6, 1.0 mg semaglutide once weekly arm vs its placebo, MACE = CV death, non-fatal MI, non-fatal stroke", "value": 0.71}, {"measurement": "Effect on reducing cardiovascular disease", "setting": "overall conclusion of the trial, more pronounced in some subgroups", "value": "surprisingly good effect on reducing cardiovascular disease"}]}]}
